Assay results: US20220040219A1, “COMPOSITIONS AND METHODS FOR TREATING CYSTIC FIBROSIS” (SpliSense Ltd., priority 2019, published 2022)

Target: T1, CFTR del Ex23 (Homo sapiens, UniProt P13569, DEL1240-1291)
T1 construct: expressed in transfected cells; host or cells: HEK 293 cells, transient transfection with Lipofectamine 2000
Assay: FLIPR membrane potential assay of CFTR function in HEK 293 cells transiently transfected with CFTR del Ex23
Type: cell-based
Settings: forskolin 10 μM, addition of potentiator VX-770 (1 μM), FIG. 1B
Experimental: HEK cells were transiently transfected with a construct bearing a CFTR transcript having exon 23 completely deleted from it (CFTR del Ex23). Transfection was carried out using Lipofectamine 2000 transfection reagent (Invitrogen) according to the lipofectamine 2000 reagent protocol using the following lipofectamine amounts: 96 well—0.15 μl, 6 well—3 μl, […]—15 μl.
HEK cells transfected with the CFTR del Ex23 contruct were grown in 96-well (black, flat bottom; corning) plates. 48 hr post-transfection, CFTR channel function was analyzed using the FLIPR membrane potential assay as previously described (Molinski et al., 2015). Briefly, the cells were loaded with blue membrane potential dye (Molecular Devices), which can detect changes in transmembrane potential. The plate was then read in a fluorescence plate reader (BioTek Synergy H1) for baseline levels followed by CFTR stimulation using the cAMP agonist forskolin (10 μM; Sigma), DMSO vehicle was used as a negative control. CFTR-mediated depolarization of the plasma membrane was detected as an increase in fluorescence and hyperpolarization (or repolarization) as a decrease. […]
FLIPR™ (Fluorescence Imaging Plate Reader) is a functional system that allows measuring changes in membrane potential by a fluorescent indicator. […]

T1 sequence (P13569 with tags, fused parts or gaps DEL1240-1291): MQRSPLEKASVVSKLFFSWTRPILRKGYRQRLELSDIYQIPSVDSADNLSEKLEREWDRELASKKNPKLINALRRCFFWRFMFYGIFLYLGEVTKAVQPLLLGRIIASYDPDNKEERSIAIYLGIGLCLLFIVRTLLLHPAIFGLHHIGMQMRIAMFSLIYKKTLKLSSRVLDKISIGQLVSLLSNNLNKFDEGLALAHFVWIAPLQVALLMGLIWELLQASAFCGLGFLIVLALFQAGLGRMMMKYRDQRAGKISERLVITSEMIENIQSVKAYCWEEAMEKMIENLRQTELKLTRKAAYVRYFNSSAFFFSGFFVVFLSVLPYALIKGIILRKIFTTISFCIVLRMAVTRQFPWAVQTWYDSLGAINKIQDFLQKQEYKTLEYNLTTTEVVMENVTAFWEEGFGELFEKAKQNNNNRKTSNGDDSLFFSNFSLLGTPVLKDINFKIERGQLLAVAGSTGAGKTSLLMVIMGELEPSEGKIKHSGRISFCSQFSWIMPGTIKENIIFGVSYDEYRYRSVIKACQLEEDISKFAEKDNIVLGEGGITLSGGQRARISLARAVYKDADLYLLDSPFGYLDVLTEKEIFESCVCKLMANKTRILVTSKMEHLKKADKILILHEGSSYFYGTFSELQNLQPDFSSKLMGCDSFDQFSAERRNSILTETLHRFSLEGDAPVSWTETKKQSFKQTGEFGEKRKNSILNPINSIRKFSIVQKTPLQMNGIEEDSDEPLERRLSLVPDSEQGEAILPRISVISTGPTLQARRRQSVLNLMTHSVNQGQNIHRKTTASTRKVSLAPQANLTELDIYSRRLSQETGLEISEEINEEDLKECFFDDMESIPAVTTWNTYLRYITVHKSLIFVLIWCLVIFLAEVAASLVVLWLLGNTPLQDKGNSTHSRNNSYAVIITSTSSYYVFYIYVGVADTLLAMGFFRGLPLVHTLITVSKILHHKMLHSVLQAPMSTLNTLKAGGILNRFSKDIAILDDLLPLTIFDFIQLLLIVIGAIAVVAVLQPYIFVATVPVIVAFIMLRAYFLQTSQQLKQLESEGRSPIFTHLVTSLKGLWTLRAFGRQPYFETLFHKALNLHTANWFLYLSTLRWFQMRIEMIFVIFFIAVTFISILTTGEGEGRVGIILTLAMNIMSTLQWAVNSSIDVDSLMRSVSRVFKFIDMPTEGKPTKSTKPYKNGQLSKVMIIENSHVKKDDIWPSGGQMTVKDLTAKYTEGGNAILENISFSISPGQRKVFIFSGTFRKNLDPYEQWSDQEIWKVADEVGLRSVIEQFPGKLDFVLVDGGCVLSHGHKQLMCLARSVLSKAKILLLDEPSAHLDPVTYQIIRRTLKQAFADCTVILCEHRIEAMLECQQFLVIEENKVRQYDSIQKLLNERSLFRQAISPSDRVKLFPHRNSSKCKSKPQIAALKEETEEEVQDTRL

With `CC(C)(C)c1cc(C(C)(C)C)c(NC(=O)c2c[nH]c3ccccc3c2=O)cc1O` [VX-770, N-(2,4-Di-tert-butyl-5-hydroxyphenyl)-4-oxo-1,4-dihydroquinoline-3-carboxamide] the channel activation was 35 % of WT.
